Values after ≈ are worked out from the molar mass of the structure shown.
Legend:
[1] = published studies; cited from earlier work
MRSA = assay: Filter disc zone of inhibition on Mueller Hinton plates; format: cell-based
Protocol: (§1) Antimicrobial activity of the released drug was tested on Pseudomonas aeruginosa and MRSA cultures and compared to standard concentrations of antibiotic using filter disks on Mueller Hinton plates. The released antibiotics or controls were added onto sterile filter discs (created using a standard hole punch on filter paper, autoclaved). One colony of each bacteria was selected and (pseudomonas or MRSA) placed into a bacteria culture tube and were incubated in 5 mL of LB broth and placed on 37° C. shaker for approximately 4-6 hours.
(§2) 500 μL of the incubated bacteria was then added to the Mueller-Hinton Plates (which have been acclimated to room temperature for at least 2 hours) and a plastic disposable spreader was used to carefully spread the bacteria broth onto the plates and allowed to settle for approximately 5-10 minutes. The filter discs were then placed on top of the bacterial plate and the plates inverted and placed in the 37° C. incubator overnight. After 24 hours, the plates were removed and the zones of inhibition measured and photographed. Parafilm was used to wrap around each plate to keep the plates at room temperature.

Pseudomonas aeruginosa = assay: as above; format: cell-based; conditions: control study
Protocol: as §1, §2

Row | SMILES | minimum inhibitory concentration [1] | zone of inhibition at 10 µg/disc (MRSA; Staphylococcus aureus, MRSA, control, 10 μg on a filter disc) | amount sufficient to inhibit growth (MRSA; control study, filter disc) | zone of inhibition (MRSA; drug released from the HA polymer, every collection between 1 hour and 7 days) | amount sufficient to inhibit growth (Pseudomonas aeruginosa)
1 | CN[C@H](CC(C)C)C(=O)N[C@H]1C(=O)N[C@@H](CC(N)=O)C(=O)N[C@H]2C(=O)N[C@H]3C(=O)N[C@H](C(=O)N[C@H](C(=O)O)c4cc(O)cc(O)c4-c4cc3ccc4O)[C@H](O)c3ccc(c(Cl)c3)Oc3cc2cc(c3O[C@@H]2O[C@H](CO)[C@@H](O)[C@H](O)[C@H]2O[C@H]2C[C@](C)(N)[C@H](O)[C@H](C)O2)Oc2ccc(cc2Cl)[C@H]1O [Vancomycin] | 2 µg/mL (≈ 1.38 µM) | 8 mm | 10 µg | up to 15 mm | 
2 | O=C(O)c1cn(C2CC2)c2cc(N3CCNCC3)c(F)cc2c1=O [Ciprofloxacin] | 0.5 µg/mL (≈ 1.51 µM) |  |  |  | 5 µg
